Experimental data taken from patent US20260297060A1, “COMPOUNDS FOR THE DEGRADATION OF MUTANT BRAF” (C4 THERAPEUTICS, INC., priority 2023, published 2026).
Where two headings read alike, the source gives them in different places.

Tests used:
[1] = tested on: luciferase-tagged A375 human melanoma CNS tumor; experiment: Survival of mice in CNS tumor study (BRAF intracranial model) (Example 12); type: in vivo, human A375 CNS xenograft in mice; conditions: versus encorafenib
Description: FIG. 48 is the survival curve for the mice after administration of vehicle, encorafenib, Compound 26, Compound 141 in CNS tumor study. The x-axis is time measured in days and the y-axis is probability of survival. The experiment was conducted as described in Example 12.
FIG. 85 is an extended survival curve for the BRAF intracranial model experiment after administration of vehicle, encorafenib, Compound 26, and Compound 141 in the CNS tumor study. The x-axis is time measured in days and the y-axis is probability of survival. The experiment was conducted as described in Example 12.

[2] = Pharmacokinetics in female BALB/c nude mice bearing A375 xenografts, 1 day dosing (PK and PD study): plasma, tumor and brain concentrations, AUC; type: in vivo; conditions: for Mean Concentration in Brain ± SEM / Mean Concentration in Plasma ± SEM / Mean Concentration in Tumor ± SEM: BQL: below the lower limit of quantitation; for AUC at 24 h: read-out: Brain AUC at 24 hours, Average
Excerpt: The concentrations of Dabrafenib, Compound 26 and Compound 141 in the treatment of female BALB/c nude mice bearing A375 xenografts are shown in Table 62-Table 72 and FIG. 52-FIG. 73.

[3] = 1.5 mg/kg p.o. BID × 1 day, post 2nd dose, 48 h
[4] = 2 mg/kg p.o. TID × 1 day, post 3rd dose, 48 h
[5] = 3 mg/kg p.o. BID × 1 day, post 2nd dose, 36 h
[6] = mouse, brain, po, 1.5 mg/kg, 1.5 mg/kg p.o. BID × 1 day, post 2nd dose, read-out: Mean Concentration in Brain ± SEM
[7] = mouse, brain, po, 2 mg/kg, 2 mg/kg p.o. TID × 1 day, post 3rd dose, read-out: Mean Concentration in Brain ± SEM
[8] = mouse, brain, po, 3 mg/kg, 3 mg/kg p.o. BID × 1 day, post 2nd dose, read-out: Mean Concentration in Brain ± SEM
[9] = mouse, brain, po, 6 mg/kg, 6 mg/kg p.o. QD × 1 day, read-out: Mean Concentration in Brain ± SEM
[10] = mouse, brain, po, 10 mg/kg, 10 mg/kg p.o. BID × 1 day, post 2nd dose, read-out: Mean Concentration in Brain ± SEM
[11] = mouse, plasma, po, 1.5 mg/kg, 1.5 mg/kg p.o. BID × 1 day, post 1st dose, read-out: Mean Concentration in Plasma ± SEM
[12] = mouse, plasma, po, 1.5 mg/kg, 1.5 mg/kg p.o. BID × 1 day, post 2nd dose, read-out: Mean Concentration in Plasma ± SEM
[13] = mouse, plasma, po, 2 mg/kg, 2 mg/kg p.o. TID × 1 day, post 1st dose, read-out: Mean Concentration in Plasma ± SEM
[14] = mouse, plasma, po, 2 mg/kg, 2 mg/kg p.o. TID × 1 day, post 2nd dose, read-out: Mean Concentration in Plasma ± SEM
[15] = mouse, plasma, po, 2 mg/kg, 2 mg/kg p.o. TID × 1 day, post 3rd dose, read-out: Mean Concentration in Plasma ± SEM
[16] = mouse, plasma, po, 3 mg/kg, 3 mg/kg p.o. BID × 1 day, post 1st dose, read-out: Mean Concentration in Plasma ± SEM

SMILES: CCN(C)S(=O)(=O)Nc1ccc(F)c(Oc2ccc3ncn([C@H]4COC5(CCN(C6CC7(C6)CN(c6cc8c(cc6F)c(N6CCC(=O)NC6=O)nn8C)C7)CC5)C4)c(=O)c3c2)c1C#N [Compound 26, (3R)-3-[6-[2-cyano-3-[[ethyl(methyl)sulfamoyl]amino]-6-fluoro-phenoxy]-4-oxo-quinazolin-3-yl]-8-[2-[3-(2,4-dioxohexahydropyrimidin-1-yl)-5-fluoro-1-methyl-indazol-6-yl]-2-azaspiro[3.3]heptan-6-yl]-1-oxa-8-azaspiro[4.5]decane]
- survival of CNS tumor-bearing mice compared with encorafenib [1]: lived significantly longer
- Mean Concentration in Brain ± SEM ([2]; 1.5 mg/kg p.o. BID × 1 day, post 2nd dose, 24 h): BQL^a
- Mean Concentration in Brain ± SEM [2, 3]: BQL
- Mean Concentration in Plasma ± SEM [2, 3]: BQL
- Mean Concentration in Brain ± SEM ([2]; 2 mg/kg p.o. TID × 1 day, post 3rd dose, 24 h): BQL^a
- Mean Concentration in Brain ± SEM [2, 4]: BQL
- Mean Concentration in Plasma ± SEM [2, 4]: BQL
- Mean Concentration in Tumor ± SEM [2, 4]: BQL
- Mean Concentration in Brain ± SEM ([2]; 3 mg/kg p.o. BID × 1 day, post 2nd dose, 24 h): BQL^a
- Mean Concentration in Brain ± SEM [2, 5]: BQL
- Mean Concentration in Tumor ± SEM [2, 5]: BQL
- Mean Concentration in Brain ± SEM ([2]; 3 mg/kg p.o. BID × 1 day, post 2nd dose, 48 h): BQL
- Mean Concentration in Brain ± SEM ([2]; 6 mg/kg p.o. QD × 1 day, 24 h): BQL^a
- Mean Concentration in Brain ± SEM ([2]; 6 mg/kg p.o. QD × 1 day, 48 h): BQL
- Mean Concentration in Brain ± SEM ([2]; 10 mg/kg p.o. BID × 1 day, post 2nd dose, 24 h): BQL^a
- Mean Concentration in Brain ± SEM ([2]; 10 mg/kg p.o. BID × 1 day, post 2nd dose, 48 h): BQL
- concentration at 1 h [2, 6]: 25 ± 3.74 ng/g
- concentration at 4 h [2, 6]: 21.8 ± 3.64 ng/g
- concentration at 10 h [2, 6]: 9.78 ± 0.841 ng/g
- concentration at 1 h [2, 7]: 66.5 ± 11.7 ng/g
- concentration at 4 h [2, 7]: 26.9 ± 2.99 ng/g
- concentration at 10 h [2, 7]: 23 ± 7.44 ng/g
- concentration at 0.25 h [2, 8]: 29.7 ng/g
- concentration at 0.5 h [2, 8]: 41 ± 4.05 ng/g
- concentration at 1 h [2, 8]: 89.1 ± 25 ng/g
- concentration at 2 h [2, 8]: 99.5 ± 11.9 ng/g
- concentration at 4 h [2, 8]: 35.8 ± 6.52 ng/g
- concentration at 10 h [2, 8]: 14.5 ± 0.737 ng/g
- concentration at 1 h [2, 9]: 167 ± 27.6 ng/g
- concentration at 4 h [2, 9]: 79.2 ± 21.8 ng/g
- concentration at 10 h [2, 9]: 30.8 ± 8.11 ng/g
- concentration at 1 h [2, 10]: 313 ± 41.7 ng/g
- concentration at 4 h [2, 10]: 185 ± 18.2 ng/g
- concentration at 10 h [2, 10]: 80.4 ± 8.59 ng/g
- AUC at 24 h ([2]; mouse, brain, po, 1.5 mg/kg p.o. BID × 1 day): 233 ng·h/mL
- AUC at 24 h ([2]; mouse, brain, po, 2 mg/kg p.o. TID × 1 day): 451 ng·h/mL
- AUC at 24 h ([2]; mouse, brain, po, 3 mg/kg p.o. BID × 1 day): 522 ng·h/mL
- AUC at 24 h ([2]; mouse, brain, po, 6 mg/kg p.o. QD × 1 day): 915 ng·h/mL
- AUC at 24 h ([2]; mouse, brain, po, 10 mg/kg p.o. BID × 1 day): 2100 ng·h/mL
- concentration at 0.25 h [2, 11]: 1180 ± 103 ng/mL
- concentration at 0.5 h [2, 11]: 2620 ± 182 ng/mL
- concentration at 1 h [2, 11]: 3790 ± 553 ng/mL
- concentration at 2 h [2, 11]: 3090 ± 346 ng/mL
- concentration at 4 h [2, 11]: 1110 ± 339 ng/mL
- concentration at 8 h [2, 11]: 318 ± 78.2 ng/mL
- concentration at 12 h ([2]; mouse, plasma, po, 1.5 mg/kg, 1.5 mg/kg p.o. BID × 1 day, post 1st dose, 12 h, read-out: Mean Concentration in Plasma ± SEM): 121 ± 6.74 ng/mL
- concentration at 0.25 h [2, 12]: 629 ± 24.4 ng/mL
- concentration at 0.5 h [2, 12]: 1580 ± 108 ng/mL
- concentration at 1 h [2, 12]: 1820 ± 86.6 ng/mL
- concentration at 2 h [2, 12]: 2930 ± 312 ng/mL
- concentration at 4 h [2, 12]: 1740 ± 355 ng/mL
- concentration at 10 h [2, 12]: 541 ± 95.8 ng/mL
- concentration at 24 h ([2]; mouse, plasma, po, 1.5 mg/kg, 1.5 mg/kg p.o. BID × 1 day, post 2nd dose, 24 h, read-out: Mean Concentration in Plasma ± SEM): 4.74 ± 1.31 ng/mL
- concentration at 36 h ([2]; mouse, plasma, po, 1.5 mg/kg, 1.5 mg/kg p.o. BID × 1 day, post 2nd dose, 36 h, read-out: Mean Concentration in Plasma ± SEM): 0.889 ng/mL
- concentration at 0.25 h [2, 13]: 1600 ± 272 ng/mL
- concentration at 0.5 h [2, 13]: 2880 ± 289 ng/mL
- concentration at 1 h [2, 13]: 3720 ± 77.7 ng/mL
- concentration at 2 h [2, 13]: 2930 ± 635 ng/mL
- concentration at 4 h [2, 13]: 1420 ± 56.7 ng/mL
- concentration at 8 h [2, 13]: 283 ± 80.3 ng/mL
- concentration at 0.25 h [2, 14]: 1390 ± 84.1 ng/mL
- concentration at 2 h [2, 14]: 2720 ± 466 ng/mL
- concentration at 8 h [2, 14]: 580 ± 166 ng/mL
- concentration at 0.25 h [2, 15]: 1090 ± 75.2 ng/mL
- concentration at 0.5 h [2, 15]: 2630 ± 81.7 ng/mL
- concentration at 1 h [2, 15]: 3780 ± 584 ng/mL
- concentration at 2 h [2, 15]: 3680 ± 376 ng/mL
- concentration at 4 h [2, 15]: 1770 ± 127 ng/mL
- concentration at 10 h [2, 15]: 1250 ± 411 ng/mL
- concentration at 24 h ([2]; mouse, plasma, po, 2 mg/kg, 2 mg/kg p.o. TID × 1 day, post 3rd dose, 24 h, read-out: Mean Concentration in Plasma ± SEM): 9.4 ± 3.31 ng/mL
- concentration at 36 h ([2]; mouse, plasma, po, 2 mg/kg, 2 mg/kg p.o. TID × 1 day, post 3rd dose, 36 h, read-out: Mean Concentration in Plasma ± SEM): 1.45 ng/mL
- concentration at 0.25 h [2, 16]: 3010 ± 401 ng/mL
- concentration at 0.5 h [2, 16]: 8140 ± 2030 ng/mL
- concentration at 1 h [2, 16]: 7840 ± 1330 ng/mL
- concentration at 2 h [2, 16]: 6910 ± 1450 ng/mL
